Patent publication US9930893B2, “Inhibitors of DXP synthase and methods of use thereof” (The Johns Hopkins University, priority 2014, dated 2018)
≈ marks a conversion by molar mass, not a printed value. Where “and” joins values, the source holds several entries; their conditions need not be identical. Identical values can stand only once. Like-named read-outs stand apart in the source and are kept apart here.

What was measured:
[1] = target: T1, Porcine pyruvate dehydrogenase (PDH E1 subunit) (Sus scrofa, UniProt P29804); test: Inhibition of PDH by acetylphosphonates; format: biochemical; details: Table 5 (no unit in table; μM)
T1 construct: Ki^PDH; μM); Ki^PDH
T1 sequence (P29804 1-390): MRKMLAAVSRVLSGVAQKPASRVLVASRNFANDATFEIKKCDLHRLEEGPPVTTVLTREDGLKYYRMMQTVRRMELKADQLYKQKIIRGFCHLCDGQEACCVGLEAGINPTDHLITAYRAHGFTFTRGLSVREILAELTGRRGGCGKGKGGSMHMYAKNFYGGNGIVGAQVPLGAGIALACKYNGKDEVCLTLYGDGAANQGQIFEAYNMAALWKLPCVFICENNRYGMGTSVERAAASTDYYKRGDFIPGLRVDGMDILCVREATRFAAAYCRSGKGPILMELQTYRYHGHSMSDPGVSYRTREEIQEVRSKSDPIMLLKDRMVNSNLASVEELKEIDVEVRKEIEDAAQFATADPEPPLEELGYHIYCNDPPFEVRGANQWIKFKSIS
Protocol: FIG. 6A, FIG. 6B, and FIG. 6C are charts showing Competitive inhibition of procine PDH E1 subunit by PentAP (FIG. 6A), HexAP (FIG. 6B) and OctAP (FIG. 6C). Inhibition assays were performed as previously described^[18]. Pyruvate concentration was varied from 12.5-250 μM and acetylphosphonate concentration was varied: 0 μM (∘), 250 μM (PentAP) or 200 μM (HexAP and OctAP) (●), 500 μM (□) and 1000 μM (▪). Experiments were performed in triplicate, and data were subjected to non-linear regression analysis for Ki determinations (GraphPad Prism). Representative Lineweaver-Burk plots (GraFit from Erithacus Software) are shown for PentAP (FIG. 6A), HexAP (FIG. 6B) and OctAP (FIG. […]) to illustrate the competitive inhibition mode with respect to pyruvate.
Pyruvate dehydrogenase activity was measured spectrophotometrically as previously reported ^[38] by monitoring absorbance changes at 340 nm due to reduction of NAD^+ by PDH. Reaction mixtures contained 100 mM HEPES (pH 8.0), 1 mg/mL BSA, 0.2 mM ThDP, 0.1 mM coenzyme A, 1 mM MgCl2, 2 mM cysteine, 0.3 mM tris(2-carboxyethyl)phosphine (TCEP). The reaction was initiated with enzyme (0.01 units/ml) and activity was monitored at 30° C. For inhibition studies, reaction mixtures (described above) including BnAP (0.5, 1, 2.25 mM) were pre-incubated at 30° C. for 5 minutes. Initial rates were measured immediately after reactions were initiated by addition of PDH (0.01 units/ml). Double reciprocal analysis of data was carried out using GraFit version 7 from Erithacus Software.

E. coli K-12 (BW25113) = test: Antimicrobial activity against E. coli K-12 grown in M9 minimal medium; format: cell-based; details: Escherichia coli, BW25113
Text: The product of DXP synthase, DXP, lies at a metabolic branchpoint. DXP serves as precursor not only for essential isoprenoids, but also is essential to central metabolism as a precursor to both thiamin diphosphate and pyridoxal phosphate. Thus, evaluation of antimicrobial activity of DXP synthase inhibitors in the standard, rich growth medium (CAMHB) which contains rescuing metabolites, likely underestimates the antimicrobial activities of these agents. Standard in vitro culture conditions may have poor predictive value for these agents in vivo; access to most nutrients is thought to be more difficult from the host than in nutrient rich media.

E. coli DXP synthase = target: T2, E. coli DXP synthase (Escherichia coli, UniProt P77488); test: biochemical; details: competitive with respect to pyruvate
T2 construct: made in house
Protocol: FIG. 4A, FIG. 4B, and FIG. 4C are charts showing competitive inhibition of DXP synthase by pentylacetylphosphonate (PentAP; FIG. 4A), hexylacetylphosphonate (HexAP; FIG. 4B), and octylacetyl phosphonate (OctAP; FIG. 4C). Inhibition assays were performed as previously described^[18], [40]). […] Pyruvate concentration was varied from 12-240 μM and acetylphosphonate concentration was varied: 0 μM (∘), 10 μM (●), 25 μM (□) and 50 μM (▪). Experiments were performed in triplicate, and data were subjected to non-linear regression analysis for Ki determinations (GraphPad Prism). Representative Lineweaver-Burk plots (GraFit from Erithacus Software) are shown for PentAP (FIG. 4A), HexAP (FIG. 4B) and OctAP (FIG. 4C) to illustrate the competitive inhibition mode with respect to pyruvate.
Inhibition of DXP synthase was measured as previously described^[13], [18]. […] Acetylphosphonate concentration was varied from 0 to 250 μM. […] Experiments were performed in triplicate for BAP and in duplicate for iPrAP
In order to evaluate the inhibitory activity of BnAP against DXP synthase, a continuous spectrophotometric coupled assay was used to measure formation of DXP by monitoring IspC consumption of NADPH (340 nm). ^[2] DXP synthase reaction mixtures (previously described) including BnAP (15, 30, and 60 μM), IspC (1 μM) and NADPH (100 μM) were pre-incubated at 37° C. for 5 minutes. Initial rates were measured after the reaction was initiated by the addition of DXP synthase. Inhibition of the coupling enzyme (IspC) by BnAP was not observed up to 1.5 mM. Experiments were performed in triplicate. Double reciprocal analysis of data was carried out using GraFit version 7 from Erithacus Software.

[2] = system: wild-type K-12 E. coli (ATCC: MG1655); test: Antimicrobial activity against E. coli K-12 grown in CAMHB; format: cell-based
Protocol: FIG. 7A and FIG. 7B are charts showing representative growth curves are shown for BAP (FIG. 7A) and BnAP (FIG. 7B). Alkylacetylphosphonates exert dose-dependent delay in E. coli K-12 (MG 1655) growth in CAMHB. Fractional growth (measured at 16 h, blue arrow) was determined relative to the no drug control. Standardized cell cultures were exposed to increasing concentrations of acetylphosphonate, and growth was determined by measuring the OD600 for a period of 16 hours. Acetylphosphonate concentration was varied from 0-5 mM: No drug (light blue), 0.08 mM (orange), 0.16 mM (gray), 0.31 mM (yellow), 0.63 mM (blue), 1.25 mM (green), 2.5 mM (dark blue) and 5.0 mM (brown).
Thus, BnAP, PentAP, HexAP and OctAP, also shown to inhibit DXP synthase, were evaluated for antimicrobial activity against wild-type K-12 E. coli (ATCC: MG1655) grown in rich medium (CAMHB).

DXP synthase = target: T3, DXP synthase (Escherichia coli, UniProt P77488); test: Aromatic aldehydes as DXP synthase acceptor substrates; format: biochemical
T3 construct: made in house
T3 sequence (P77488 1-620): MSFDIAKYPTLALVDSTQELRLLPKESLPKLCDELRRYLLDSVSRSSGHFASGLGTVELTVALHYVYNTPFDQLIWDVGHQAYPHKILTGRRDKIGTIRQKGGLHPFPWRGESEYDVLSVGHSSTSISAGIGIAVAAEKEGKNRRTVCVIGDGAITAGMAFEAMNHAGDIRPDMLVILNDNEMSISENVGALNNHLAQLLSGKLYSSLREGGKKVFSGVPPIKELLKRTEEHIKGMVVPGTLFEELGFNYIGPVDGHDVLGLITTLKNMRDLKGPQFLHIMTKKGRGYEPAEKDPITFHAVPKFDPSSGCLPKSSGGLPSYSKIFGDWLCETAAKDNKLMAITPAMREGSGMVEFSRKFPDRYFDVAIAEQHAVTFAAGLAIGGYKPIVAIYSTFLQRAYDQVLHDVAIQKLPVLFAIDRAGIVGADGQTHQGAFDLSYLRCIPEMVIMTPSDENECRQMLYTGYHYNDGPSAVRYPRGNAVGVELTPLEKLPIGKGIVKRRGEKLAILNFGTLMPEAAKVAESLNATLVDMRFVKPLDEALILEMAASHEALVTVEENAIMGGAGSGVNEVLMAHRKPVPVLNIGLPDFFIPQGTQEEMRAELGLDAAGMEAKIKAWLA
Text: Some ThDP-dependent enzymes are known to catalyze C—C bond formation using aromatic substrates with varying turnover efficiencies; ^[20] [21] […] As a starting point, we tested several aromatic aldehydes as acceptor substrates.

E. coli BW25113 = test: Antimicrobial activity against E. coli BW25113 grown in CAMHB; format: cell-based; details: 0.63 to 5 mM, 16 hours
Protocol: FIG. 9 is a chart showing antimicrobial activity of acetylphosphonates against E. coli BW25113 grown in CAMHB. Standardized cell cultures (approximately ˜10^5 CFU mL^−1) were exposed to increasing concentrations of acetylphosphonate. Fractional growth was determined at 16 hours as a percentage of the growth of no drug control. BAP (●), PentAP (▪) and HexAP (▴) were varied from 0.31 to 5 mM. OctAP (▾) was varied from 0.63 to 5 mM, and BnAP (♦) was varied from 0.16 mM to 5 mM. Each data point is the average of 3 independent experiments and the error bars are standard error.
(§1) Standardized innocula of E. coli BW25113 (approximately ˜10^5 CFU mL^−1) were treated with varying concentrations of either MAP (blue) or EAP (orange) from 0.63 to 5 mM for 16 hours, and fractional growth was determined by comparison to a no drug control. The ΔtolC variant of BW25113 was also treated with varying concentrations of MAP (black) or EAP (green) from 0.63 to 5 mM for 16 hour, and fractional growth was determined by comparison to no drug controls. Experiments were performed in duplicate, and error bars represent standard deviation.

[3] = system: ΔtolC variant of E. coli BW25113; test: Antimicrobial activity against ΔtolC variant grown in CAMHB; format: cell-based; details: 0.63 to 5 mM, 16 hour
Protocol: as §1

[4] = aromatic aldehyde acceptor substrate

CCCCCCCCOP(=O)(O)C(C)=O [OctAP, Octylacetylphosphonate]
Ki ([1]; read-out: Ki^PDH): 154 ± 14 µM
MIC (E. coli K-12 (BW25113); M9 minimal medium, preliminary, read-out: MIC): 1.25 mM (≈ 295 µg/mL)
Ki (E. coli DXP synthase; read-out: Ki (DXP synthase)): 6 ± 0.2 µM
antimicrobial effects against E. coli (MG1655) ([2]; FIG. 10, in words): inactive
inactive up to ([2]; rich medium (CAMHB)): > 5 mM and > 1210 ug/mL

O=Cc1c(O)cc([N+](=O)[O-])cc1[N+](=O)[O-] [2-Hydroxy-4,6-dinitrobenzaldehyde]
Km higher than the natural substrate, D-GAP (DXP synthase): ~18 fold
Km (DXP synthase; [4]): 512 µM
kcat (DXP synthase; [4]): 0.35 ± 0.05 min⁻¹

CCOP(=O)(O)C(C)=O [EAP, ethyl acetylphosphonate]
activity against E. coli BW25113 (E. coli BW25113): inactive
activity against ΔtolC variant [3]: inactive

CCCCCOP(=O)(O)C(C)=O [PentAP, Pentylacetylphosphonate]
Ki ([1]; Ki^PDH): 250 ± 31 µM
MIC (E. coli K-12 (BW25113)): 12.5 mM (≈ 2430 µg/mL)
Ki (E. coli DXP synthase; Ki (DXP synthase)): 9.9 ± 0.4 µM
MIC90 ([2]; Escherichia coli, MG1655, 16 h, read-out: minimum inhibitory concentration (MIC90)): 1250 µM (≈ 243 µg/mL)

COP(=O)(O)C(C)=O [MAP, methyl acetylphosphonate]
activity against E. coli BW25113 (E. coli BW25113): inactive
activity against ΔtolC variant [3]: inactive
